Laboratory results reported in ChEMBL document CHEMBL3997765 (Medchemcomm, 2016).

Columns and labels:
[1] = biological target: Cyclin-dependent kinase 1/cyclin B1 (Homo sapiens) (UniProt P06493+P14635); experiment: Inhibition of full length recombinant human His-tagged CDK1/Cyclin B expressed in baculovirus expression system at 10 uM by Z'-LYTE assay relative to control
[2] = biological target: Dual specificity tyrosine-phosphorylation-regulated kinase 3 (Homo sapiens) (UniProt O43781); experiment: Inhibition of full length recombinant human GST-tagged DYRK3 expressed in baculovirus expression system at 10 uM by Z'-LYTE assay relative to control
[3] = biological target: Insulin-like growth factor 1 receptor (Homo sapiens) (UniProt P08069); experiment: Inhibition of recombinant human C-terminal His-tagged IGF1R cytoplasmic domain (960 to 1397 residues) expressed in baculovirus expression system at 10 uM by Z'-LYTE assay relative to control
Chain of Insulin-like growth factor 1 receptor (Homo sapiens) (P08069 31-736 limits assumed): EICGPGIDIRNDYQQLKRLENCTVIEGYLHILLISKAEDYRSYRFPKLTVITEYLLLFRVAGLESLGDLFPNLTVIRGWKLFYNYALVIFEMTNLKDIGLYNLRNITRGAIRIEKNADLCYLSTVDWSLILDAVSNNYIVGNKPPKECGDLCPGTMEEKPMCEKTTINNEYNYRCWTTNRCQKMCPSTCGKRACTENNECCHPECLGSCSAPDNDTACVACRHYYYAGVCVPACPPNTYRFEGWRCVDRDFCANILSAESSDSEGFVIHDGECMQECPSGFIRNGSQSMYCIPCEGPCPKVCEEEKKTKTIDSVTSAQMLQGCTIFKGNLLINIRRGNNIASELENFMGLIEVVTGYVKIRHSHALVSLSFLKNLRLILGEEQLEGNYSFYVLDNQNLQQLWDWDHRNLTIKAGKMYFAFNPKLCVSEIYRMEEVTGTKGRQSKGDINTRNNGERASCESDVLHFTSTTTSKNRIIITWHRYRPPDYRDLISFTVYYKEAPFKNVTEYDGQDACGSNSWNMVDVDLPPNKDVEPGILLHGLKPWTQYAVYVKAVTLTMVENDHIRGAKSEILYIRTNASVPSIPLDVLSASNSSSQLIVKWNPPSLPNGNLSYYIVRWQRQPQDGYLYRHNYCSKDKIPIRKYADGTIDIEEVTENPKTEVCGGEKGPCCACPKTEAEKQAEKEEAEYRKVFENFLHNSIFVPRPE
Chain of Insulin-like growth factor 1 receptor (Homo sapiens) (P08069 741-1367 limits assumed): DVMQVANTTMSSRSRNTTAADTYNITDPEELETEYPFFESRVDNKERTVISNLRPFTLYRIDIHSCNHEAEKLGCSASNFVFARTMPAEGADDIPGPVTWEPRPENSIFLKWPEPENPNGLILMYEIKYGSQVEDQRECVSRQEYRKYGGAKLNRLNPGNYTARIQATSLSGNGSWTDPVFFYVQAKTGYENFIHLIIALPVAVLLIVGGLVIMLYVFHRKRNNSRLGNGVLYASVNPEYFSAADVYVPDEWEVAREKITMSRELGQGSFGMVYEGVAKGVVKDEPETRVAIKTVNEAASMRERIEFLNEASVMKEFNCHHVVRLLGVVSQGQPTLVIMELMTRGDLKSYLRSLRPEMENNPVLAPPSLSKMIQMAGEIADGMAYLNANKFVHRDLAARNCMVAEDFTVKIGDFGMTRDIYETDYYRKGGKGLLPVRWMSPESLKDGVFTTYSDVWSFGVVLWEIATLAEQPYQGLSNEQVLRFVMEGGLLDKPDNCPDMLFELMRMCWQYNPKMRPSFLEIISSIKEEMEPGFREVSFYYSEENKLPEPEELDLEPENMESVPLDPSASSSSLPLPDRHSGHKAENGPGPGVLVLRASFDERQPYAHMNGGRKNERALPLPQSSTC

[4] = biological target: Ephrin type-A receptor 2 (Homo sapiens) (UniProt P29317); experiment: Inhibition of recombinant human GST-tagged EPHA2 cytoplasmic domain (560 to 976 residues) expressed in baculovirus expression system at 10 uM by Z'-LYTE assay relative to control
[5] = biological target: Rho-associated protein kinase 1 (Homo sapiens) (UniProt Q13464); experiment: Inhibition of recombinant human GST-tagged ROCK1 catalytic domain (1 to 535 residues) expressed in baculovirus expression system at 10 uM relative to control
Chain of Rho-associated protein kinase 1 (Homo sapiens) (Q13464 2-1354 limits assumed): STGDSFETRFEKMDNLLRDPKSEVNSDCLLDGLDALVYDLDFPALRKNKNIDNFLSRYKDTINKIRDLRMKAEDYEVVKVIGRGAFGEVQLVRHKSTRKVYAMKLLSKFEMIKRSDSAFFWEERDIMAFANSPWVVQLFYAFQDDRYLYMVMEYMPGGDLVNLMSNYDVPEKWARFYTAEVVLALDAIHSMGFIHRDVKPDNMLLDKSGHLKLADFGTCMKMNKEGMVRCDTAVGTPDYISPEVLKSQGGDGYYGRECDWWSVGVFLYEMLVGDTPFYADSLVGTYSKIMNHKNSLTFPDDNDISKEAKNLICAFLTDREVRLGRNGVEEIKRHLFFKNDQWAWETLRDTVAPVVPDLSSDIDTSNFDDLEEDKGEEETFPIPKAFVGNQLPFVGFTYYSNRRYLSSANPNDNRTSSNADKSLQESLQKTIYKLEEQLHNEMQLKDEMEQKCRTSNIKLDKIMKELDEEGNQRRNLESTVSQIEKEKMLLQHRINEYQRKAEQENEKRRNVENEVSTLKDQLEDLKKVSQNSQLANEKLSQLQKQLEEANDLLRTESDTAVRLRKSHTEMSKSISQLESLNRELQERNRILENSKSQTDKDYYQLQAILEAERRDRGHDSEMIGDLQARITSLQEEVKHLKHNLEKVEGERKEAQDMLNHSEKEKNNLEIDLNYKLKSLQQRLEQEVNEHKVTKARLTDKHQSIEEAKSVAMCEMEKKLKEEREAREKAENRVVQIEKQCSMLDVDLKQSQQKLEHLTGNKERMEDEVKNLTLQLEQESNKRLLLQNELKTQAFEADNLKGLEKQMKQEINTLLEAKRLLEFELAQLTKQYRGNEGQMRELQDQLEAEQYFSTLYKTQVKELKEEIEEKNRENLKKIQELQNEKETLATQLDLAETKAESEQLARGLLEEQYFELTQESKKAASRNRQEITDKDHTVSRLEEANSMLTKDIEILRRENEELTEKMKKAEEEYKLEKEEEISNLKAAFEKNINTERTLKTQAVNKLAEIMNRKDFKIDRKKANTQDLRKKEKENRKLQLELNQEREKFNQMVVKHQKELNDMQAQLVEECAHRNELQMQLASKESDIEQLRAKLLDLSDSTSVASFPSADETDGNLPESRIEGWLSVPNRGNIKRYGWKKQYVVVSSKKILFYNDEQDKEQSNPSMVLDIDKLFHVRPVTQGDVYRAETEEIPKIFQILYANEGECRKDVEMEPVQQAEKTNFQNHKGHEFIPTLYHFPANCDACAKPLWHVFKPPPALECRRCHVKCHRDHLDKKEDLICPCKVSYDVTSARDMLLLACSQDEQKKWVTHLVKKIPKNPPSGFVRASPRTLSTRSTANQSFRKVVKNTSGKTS

[6] = biological target: Mitogen-activated protein kinase 3 (Homo sapiens) (UniProt P27361); experiment: Inhibition of full length recombinant human GST-tagged ERK1 expressed in Escherichia coli at 10 uM by Z'-LYTE assay relative to control
[7] = biological target: Casein kinase II subunit alpha (Homo sapiens) (UniProt P68400); experiment: Inhibition of full length recombinant human His-tagged CK2alpha1 expressed in baculovirus expression system at 10 uM by Z'-LYTE assay relative to control
Chain of Casein kinase II subunit alpha (Homo sapiens) (P68400 whole entry, looked up): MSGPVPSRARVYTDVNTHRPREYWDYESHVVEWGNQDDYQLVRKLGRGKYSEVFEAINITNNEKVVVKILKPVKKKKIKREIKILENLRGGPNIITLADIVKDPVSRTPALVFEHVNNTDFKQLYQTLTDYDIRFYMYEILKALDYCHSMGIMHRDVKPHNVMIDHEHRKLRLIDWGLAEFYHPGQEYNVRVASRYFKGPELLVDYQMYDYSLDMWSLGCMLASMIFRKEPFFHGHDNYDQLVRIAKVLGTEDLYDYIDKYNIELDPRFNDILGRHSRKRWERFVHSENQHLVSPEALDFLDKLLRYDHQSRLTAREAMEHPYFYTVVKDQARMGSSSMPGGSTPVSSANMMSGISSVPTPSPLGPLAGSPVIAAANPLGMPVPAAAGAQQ

[8] = biological target: Glycogen synthase kinase-3 beta (Homo sapiens) (UniProt P49841); experiment: Inhibition of full length recombinant human His-tagged GSK3beta expressed in baculovirus expression system at 10 uM by Z'-LYTE assay relative to control
[9] = biological target: Tyrosine-protein kinase Lck (Homo sapiens) (UniProt P06239); experiment: Inhibition of recombinant human C-terminal His-tagged LCK cytoplasmic domain expressed in baculovirus expression system at 10 uM by Z'-LYTE assay relative to control
Chain of Tyrosine-protein kinase Lck (Homo sapiens) (P06239 2-509 limits assumed): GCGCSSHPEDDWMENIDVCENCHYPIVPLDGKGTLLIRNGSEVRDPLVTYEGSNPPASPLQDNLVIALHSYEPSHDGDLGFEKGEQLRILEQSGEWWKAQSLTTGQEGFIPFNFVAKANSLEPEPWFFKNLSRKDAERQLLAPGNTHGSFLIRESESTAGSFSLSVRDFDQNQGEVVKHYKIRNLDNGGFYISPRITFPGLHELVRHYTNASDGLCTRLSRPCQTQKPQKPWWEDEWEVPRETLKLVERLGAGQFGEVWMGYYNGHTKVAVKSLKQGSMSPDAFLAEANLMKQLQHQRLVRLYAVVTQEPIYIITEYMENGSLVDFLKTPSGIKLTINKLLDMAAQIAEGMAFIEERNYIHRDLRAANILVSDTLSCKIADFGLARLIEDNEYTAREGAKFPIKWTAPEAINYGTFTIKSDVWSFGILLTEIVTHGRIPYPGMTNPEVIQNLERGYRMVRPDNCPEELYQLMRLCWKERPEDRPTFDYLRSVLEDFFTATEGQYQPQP

[10] = biological target: Tyrosine-protein kinase SYK (Homo sapiens) (UniProt P43405); experiment: Inhibition of recombinant human N-terminal GST-tagged SYK cytoplasmic domain expressed in baculovirus expression system at 10 uM by Z'-LYTE assay relative to control
[11] = biological target: Phosphorylase b kinase gamma catalytic chain, liver/testis isoform (Homo sapiens) (UniProt P15735); experiment: Inhibition of full length recombinant human GST-tagged PHKG2 expressed in baculovirus expression system at 10 uM relative to control
Chain of Phosphorylase b kinase gamma catalytic chain, liver/testis isoform (Homo sapiens) (P15735 whole entry, the tested form may be a part, canonical isoform): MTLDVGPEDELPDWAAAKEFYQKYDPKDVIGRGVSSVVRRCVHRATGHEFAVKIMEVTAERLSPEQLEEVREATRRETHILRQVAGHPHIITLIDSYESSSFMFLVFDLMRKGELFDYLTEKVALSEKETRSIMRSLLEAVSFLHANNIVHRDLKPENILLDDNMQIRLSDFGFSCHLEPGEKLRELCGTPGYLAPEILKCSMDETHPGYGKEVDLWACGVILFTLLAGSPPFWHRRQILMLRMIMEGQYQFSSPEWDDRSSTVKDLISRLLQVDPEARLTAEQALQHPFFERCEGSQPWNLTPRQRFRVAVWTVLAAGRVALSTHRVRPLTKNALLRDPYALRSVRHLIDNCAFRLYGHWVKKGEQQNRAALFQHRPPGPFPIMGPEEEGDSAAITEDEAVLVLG

[12] = biological target: Mitogen-activated protein kinase kinase kinase kinase 4 (Homo sapiens) (UniProt O95819); experiment: Inhibition of recombinant human GST-tagged HGK catalytic domain (1 to 328 residues) expressed in baculovirus expression system at 10 uM by Z'-LYTE assay relative to control

Chain of Cyclin-dependent kinase 1/cyclin B1 (Homo sapiens) (P06493 whole entry, looked up): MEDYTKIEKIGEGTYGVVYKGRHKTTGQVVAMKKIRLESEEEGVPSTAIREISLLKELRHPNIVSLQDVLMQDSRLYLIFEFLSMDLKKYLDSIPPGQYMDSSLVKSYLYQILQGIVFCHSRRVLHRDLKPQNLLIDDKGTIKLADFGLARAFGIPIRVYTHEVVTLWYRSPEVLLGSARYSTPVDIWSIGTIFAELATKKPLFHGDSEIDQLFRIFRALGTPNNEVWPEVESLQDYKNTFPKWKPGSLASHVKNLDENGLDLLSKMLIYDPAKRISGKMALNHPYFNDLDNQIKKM
Chain of Cyclin-dependent kinase 1/cyclin B1 (Homo sapiens) (P14635 whole entry, looked up): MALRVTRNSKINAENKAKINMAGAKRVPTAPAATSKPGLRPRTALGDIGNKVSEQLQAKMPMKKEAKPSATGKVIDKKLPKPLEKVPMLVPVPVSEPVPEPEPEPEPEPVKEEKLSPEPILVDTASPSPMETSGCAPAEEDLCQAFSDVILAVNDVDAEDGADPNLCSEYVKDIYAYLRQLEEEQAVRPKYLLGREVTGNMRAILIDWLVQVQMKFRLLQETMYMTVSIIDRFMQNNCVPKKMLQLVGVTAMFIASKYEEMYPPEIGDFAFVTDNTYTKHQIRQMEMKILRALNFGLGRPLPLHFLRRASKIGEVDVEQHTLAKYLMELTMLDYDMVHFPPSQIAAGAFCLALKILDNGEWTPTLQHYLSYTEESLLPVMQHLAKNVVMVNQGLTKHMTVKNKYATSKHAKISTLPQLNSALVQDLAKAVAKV

## CC1=Nc2c(Sc3ccccc3)ncnc2Sc2ccccc21
[1]
  inhibition: 8%
[2]
  inhibition: 8%
[3]
  inhibition: 2%
[4]
  inhibition: 9%
[5]
  inhibition: 2%
[6]
  inhibition: 5%
[7]
  inhibition: 3%
[8]
  inhibition: 7%
[9]
  inhibition: 10%
[10]
  inhibition: -3%
[11]
  inhibition: 2%
[12]
  inhibition: 15%
